The values below come from the OligoGym collection.

This data set deals with SOD1. Particulars: ASO.

“And” between values parts separate entries of the source, which are not always exact repeats. Identical values can stand only once. After the bases stand the sugars from the 5' end (letter, count) and the backbone: PS all phosphorothioate, else s phosphorothioate and o phosphodiester by linkage. Methylation of C is not given here. e = 2'-O-(2-methoxyethyl) (MOE); k = constrained ethyl (cEt); d = 2'-deoxy (DNA)

“TCTTCCAAGTGATCATAAAT (sugars e5 d10 e5, PS)”: for the setting “HepG2, 5 µM”, the target mRNA inhibition was determined as 12%. On the same count and under the same terms, for “AGTGCCATACAGGGTTT (sugars e2 k2 d8 k2 e3, PS)” the value was 20%; for “GCTTGAATGACAAAGAA (sugars e2 k2 d8 k2 e3, PS)”, 24%. Consider “ACACCTTCACTGGTCCA (sugars e3 k2 d7 k2 e3, PS)”, for which, for the setting “HepG2, 3 µM”, the target mRNA inhibition is 20%.

With “GATACATTTCTACAGCT (sugars e2 k2 d9 k2 e2, PS)”, the target mRNA inhibition by setting is: (HepG2, 0.1875 µM) 0%; (HepG2, 0.75 µM) 45%; (HepG2, 3 µM) 75%; (HepG2, 4 µM) 77%; (HepG2, 12 µM) 97%. Under “HepG2, 3 µM”, “CCACTCTGGCCCCAAAC (sugars e3 k2 d7 k2 e3, PS)” displayed a target mRNA inhibition of 17%. As for “AGATTACAGTGTTTAAT (sugars e2 k2 d9 k2 e2, PS)”, the target mRNA inhibition by setting is: (HepG2, 0.1875 µM) 28%; (HepG2, 0.75 µM) 41%; (HepG2, 3 µM) 63%; (HepG2, 5 µM) 63%; (HepG2, 12 µM) 71%. In the case of “AGTGCCATACAGGGTTT (sugars e2 k2 d9 k2 e2, PS)”, the target mRNA inhibition (HepG2, 5 µM) worked out at 27%. Regarding “CTTTGCCCAAGTCATCTGCT (sugars e5 d10 e5, PS)”, the target mRNA inhibition is 56% (HepG2, 4 µM) and 86% (HepG2, 12 µM). “TCGCCCTTCAGCACGCA (sugars e2 k2 d9 k2 e2, PS)”: the target mRNA inhibition is 63% and 60% and 54% (HepG2, 4 µM); 61% and 58% and 71% (HepG2, 5 µM); 74% (HepG2, 12 µM). Under “HepG2, 3 µM”, “TTCTACAGCTAGCAGGA (sugars e3 k2 d7 k2 e3, PS)” displayed a target mRNA inhibition of 31%. In turn, “TGATTTAAGTCTGGCAA (sugars e2 k2 d8 k2 e3, PS)” displayed a target mRNA inhibition (HepG2, 5 µM) of 52%.

Under “HepG2, 4 µM”, “CAATTACACCACAAGCC (sugars e2 k2 d9 k2 e2, PS)” showed a target mRNA inhibition of 61%.

Sequence “CTCCAACATGCCTCTCT (sugars e3 k2 d7 k2 e3, PS)” registered a target mRNA inhibition (HepG2, 3 µM) of 5%.

In the case of “CATTGCCCAAGTCTCCAACA (sugars e5 d10 e5, PS)”, the target mRNA inhibition (HepG2, 5 µM) was 39% and 25%.

Sequence “ATAACTCGCTAGGCCACGCC (sugars e5 d10 e5, PS)” had a target mRNA inhibition (HepG2, 4 µM) of 12%. As to “TGATGCAATGGTCTCCTGAG (sugars e5 d10 e5, PS)”, the target mRNA inhibition (HepG2, 5 µM) amounted to 1%. Consider “ATGTTTATCAGGATACA (sugars e4 d8 e5, linkages s1 o2 s9 o2 s2)”, for which the target mRNA inhibition came to 0% (A431, 0.062 µM); 4% (A431, 0.185 µM); 10% (A431, 0.556 µM); 33% (A431, 1.667 µM); 56% (A431, 5 µM); 50% (A431, 15 µM). In addition, the target mRNA inhibition by setting is: (SH-SY5Y, 0.062 µM) 0%; (SH-SY5Y, 0.185 µM) 4%; (SH-SY5Y, 0.556 µM) 32%; (SH-SY5Y, 1.667 µM) 37%; (SH-SY5Y, 5 µM) 61%; (SH-SY5Y, 15 µM) 83%. As to “ACCTGCACTGGTACAGC (sugars e3 k2 d7 k2 e3, PS)”, the target mRNA inhibition (HepG2, 3 µM) came out at 12%. The sequence “GTTTCTCACTACAGGTA (sugars e2 k2 d8 k2 e3, PS)” came in with a target mRNA inhibition (HepG2, 5 µM) of 25%. “ACTTTAAAGCAACTCTGAAA (sugars e5 d10 e5, PS)” came in with a target mRNA inhibition (HepG2, 5 µM) of 0%. For “TTTATTCACAGGCTTGA (sugars e3 k2 d7 k2 e3, PS)”, the target mRNA inhibition (HepG2, 3 µM) is 29%.

Take “CAGAATCTTCAATAGACACA (sugars e5 d10 e5, PS)”: the target mRNA inhibition (HepG2, 5 µM) is 17% and 0%. The sequence “AGTGATCATAAATCAGT (sugars e2 k2 d8 k2 e3, PS)” registered a target mRNA inhibition (HepG2, 5 µM) of 23%. As for “ACTCATGAACATGGAATCCA (sugars e5 d10 e5, PS)”, the target mRNA inhibition (HepG2, 5 µM) is 27% and 20%. Regarding “TACAAATCTTCCAAGTG (sugars e3 k2 d7 k2 e3, PS)”, where the note is “HepG2, 3 µM”, the target mRNA inhibition is 17%. “TCCAAGTGATCATAAAT (sugars e2 k2 d8 k2 e3, PS)”: the target mRNA inhibition (HepG2, 5 µM) worked out at 42%.

For the sequence “AAACTATACAAATCTTC (sugars e2 k2 d9 k2 e2, PS)”, the target mRNA inhibition (HepG2, 5 µM) worked out at 55%. With “TGATCATAAATCAGTTT (sugars e2 k2 d9 k2 e2, PS)”, the target mRNA inhibition (HepG2, 5 µM) is 38%.

With “GTTTATCAGGATACATT (sugars e2 k2 d9 k2 e2, PS)”, the target mRNA inhibition runs as follows: (HepG2, 0.1875 µM) 38%; (HepG2, 0.75 µM) 74%; (HepG2, 3 µM) 89%; (HepG2, 4 µM) 88%; (HepG2, 12 µM) 95%. In the case of “GTGTTTAATGTTTATC (sugars ekddddddddekekee, linkages s1 o1 s8 o3 s2)”, the target mRNA inhibition is, setting by setting: (A431, 0.12 µM) 10%; (A431, 0.6 µM) 32%; (A431, 3 µM) 66%; (A431, 15 µM) 79%; (HepG2, 0.222 µM) 40%; (HepG2, 0.667 µM) 63%. Also, the target mRNA inhibition is, setting by setting: (HepG2, 2 µM) 76%; (HepG2, 6 µM) 86%.

Consider “GATCCCAATTACACCAC (sugars e2 k2 d8 k2 e3, PS)”, for which the target mRNA inhibition (HepG2, 4 µM) was found to be 41%.

“TTAGTTTGAATTTGGAT (sugars e2 k2 d9 k2 e2, PS)”: the target mRNA inhibition (HepG2, 5 µM) was found to be 16%. “TGGCAAAATACAGGTCA (sugars e3 k2 d7 k2 e3, PS)”: the target mRNA inhibition (HepG2, 3 µM) is 26%. As for “ATGGAATCCATGCAGGC (sugars e3 k2 d7 k2 e3, PS)”, the target mRNA inhibition (HepG2, 3 µM) worked out at 9%. Consider “CCGTCGCCCTTCAGCACGCA (sugars e5 d8 e7, linkages s1 o3 s10 o3 s2)”, for which the target mRNA inhibition was found to be 8% (A431, 0.062 µM); 4% (A431, 0.185 µM); 5% (A431, 0.556 µM); 4% (A431, 1.667 µM); 9% (A431, 5 µM); 3% (A431, 15 µM). Besides, the target mRNA inhibition (SH-SY5Y, 0.062 µM) came to 11%; the target mRNA inhibition (SH-SY5Y, 0.185 µM) stood at 15%; the target mRNA inhibition (SH-SY5Y, 0.556 µM) was determined as 9%; the target mRNA inhibition (SH-SY5Y, 1.667 µM) was determined as 30%; the target mRNA inhibition (SH-SY5Y, 5 µM) turned out to be 59%; the target mRNA inhibition (SH-SY5Y, 15 µM) was 76%. With “AGTTTCTCACTACAGGT (sugars e2 k2 d8 k2 e3, PS)”, for the setting “HepG2, 5 µM”, the target mRNA inhibition was 33%. “GAATCCATGCAGGCCTT (sugars e3 k2 d7 k2 e3, PS)”: for the setting “HepG2, 3 µM”, the target mRNA inhibition worked out at 9%. The sequence “CCAAGGGAATGTTTATT (sugars e3 k2 d7 k2 e3, PS)” registered a target mRNA inhibition (HepG2, 3 µM) of 36%.

As to “GGATTAAAGTGAGGACC (sugars e3 k2 d7 k2 e3, PS)”, the target mRNA inhibition (HepG2, 3 µM) was found to be 30%. For the sequence “GTTTAATACCCATCTGT (sugars e3 k2 d7 k2 e3, PS)”, the target mRNA inhibition (HepG2, 3 µM) was 17%. On the same count and under the same terms, in the case of “TTTTTATTCACAGGCTT (sugars e3 k2 d7 k2 e3, PS)” it was 31%. Sequence “TTAATGTTTATCAGGATACA (sugars e5 d10 e5, PS)” gave a target mRNA inhibition (HepG2, 5 µM) of 34%. Where the note is “HepG2, 5 µM”, “ATCAGTTTCTCACTACAGGT (sugars e5 d10 e5, PS)” came in with a target mRNA inhibition of 22%.

In the case of “CATCCTTTGGCCCACCG (sugars e3 k2 d7 k2 e3, PS)”, for the setting “HepG2, 3 µM”, the target mRNA inhibition is 38%.

Turning to “CTTCAATAGACACATCG (sugars e3 k2 d7 k2 e3, PS)”, the target mRNA inhibition (HepG2, 3 µM) was determined as 9%. The sequence “GTACTTTAAAGCAACTCTGA (sugars e5 d10 e5, PS)” returned a target mRNA inhibition (HepG2, 5 µM) of 22%. “ACAGGGTTTTTATTCAC (sugars e3 k2 d7 k2 e3, PS)”: under “HepG2, 3 µM”, the target mRNA inhibition stood at 10%.

As for “TTCTACAGCTAGCAGGA (sugars e2 k2 d8 k2 e3, PS)”, the target mRNA inhibition runs as follows: (HepG2, 0.1875 µM) 18%; (HepG2, 0.75 µM) 48%; (HepG2, 3 µM) 66%; (HepG2, 4 µM) 74%; (HepG2, 12 µM) 86%. “ACTATACAAATCTTCCA (sugars e3 k2 d7 k2 e3, PS)” came in with a target mRNA inhibition (HepG2, 3 µM) of 10%.

In turn, “TTTAATGTTTATCAGGAT (sugars e5 d8 e5, linkages s1 o3 s9 o2 s2)” gave a target mRNA inhibition (A431, 0.12 µM) of 13%; a target mRNA inhibition (A431, 0.6 µM) of 19%; a target mRNA inhibition (A431, 3 µM) of 22%; a target mRNA inhibition (A431, 15 µM) of 7%; a target mRNA inhibition (HepG2, 0.222 µM) of 10%; a target mRNA inhibition (HepG2, 0.667 µM) of 24%. Besides, the target mRNA inhibition is, setting by setting: (HepG2, 2 µM) 28%; (HepG2, 6 µM) 53%. The sequence “AAAATACAGGTCATTGA (sugars e3 k2 d7 k2 e3, PS)” returned a target mRNA inhibition (HepG2, 3 µM) of 28%. As for “CCAGACCTCCGCGCCTCGCC (sugars e5 d10 e5, PS)”, the target mRNA inhibition (HepG2, 4 µM) stood at 46%. “TTAAGTCTGGCAAAATA (sugars e3 k2 d7 k2 e3, PS)” gave a target mRNA inhibition (HepG2, 3 µM) of 2%.

Where the note is “HepG2, 5 µM”, “TCATAATAAGTGCCATA (sugars e2 k2 d8 k2 e3, PS)” gave a target mRNA inhibition of 28%. Under “HepG2, 3 µM”, “CTTCTGCTCGAAATTGA (sugars e3 k2 d7 k2 e3, PS)” returned a target mRNA inhibition of 13%. Turning to “GTGATCATAAATCAGTT (sugars e2 k2 d8 k2 e3, PS)”, the target mRNA inhibition (HepG2, 5 µM) was found to be 33%.

Turning to “AGTTTAATACCCATCTG (sugars e2 k2 d9 k2 e2, PS)”, the target mRNA inhibition (HepG2, 5 µM) is 43%. “GTGAGGACCTGCACTGG (sugars e3 k2 d7 k2 e3, PS)”: the target mRNA inhibition (HepG2, 3 µM) came out at 21%. For the setting “HepG2, 5 µM”, “TTTTCATGGACCACCAGTGT (sugars e5 d10 e5, PS)” displayed a target mRNA inhibition of 17%.

Regarding “TACATTTCTACAGCTA (sugars kekeddddddddekek, linkages s1 o3 s8 o1 s2)”, the target mRNA inhibition came out at 0% (A431, 0.12 µM); 13% (A431, 0.6 µM); 36% (A431, 3 µM); 59% (A431, 15 µM).
